In publication PMC10146949, “Cytotoxicity Profiles and Neuroprotective Properties of the Novel Ifenprodil Analogues as Sigma Ligands” (Molecules, 2023):
Values after ≈ are worked out from the molar mass of the structure shown. Like-named read-outs stand apart in the source and are kept apart here.

Tests used:
[1] = Cytotoxicity, resazurin cell viability test; assay type: cell-based, human; settings: human
Experimental: (§1) Cell viability was tested by using Resazurin (SERVA Electrophoresis GmbH, Heidelberg, Germany), which in metabolically active cells is reduced to Resufurin, a redox indicator, whose fluorescence is proportional to the number of live cells [43, 44].
(§2) The percentage of viability was calculated after subtraction of the background (obtained by killing the cells), on the basis of the ratio between the fluorescence values of the cells incubated with a compound and the fluorescence values of cells incubated with the solvent (1% DMSO). The viability of cells incubated with 1% DMSO was considered to be equivalent to 100%.
(§3) The statistical analysis was carried out with GraphPad Prism® 6.0 (GraphPad Software, Inc, La Jolla, CA, USA) software using an unpaired t-test. p < 0.05 was considered statistically significant. Cytotoxicity concentrations (IC50s) were determined from dose-response curves analyzed by using GraphPad Prism software.

[2] = tested on: SOD1 gene expression in SH-SY5Y cells; assay: Real-Time PCR of SOD1 mRNA levels; settings: 12.5 µM, 12 h; for effect on SOD1 expression (in words): vs DMSO
Experimental: (§4) Total RNA (500 ng) was primed with hexameric random primers and retrotranscribed into cDNA with M-MLV reverse transcriptase (Thermo Fisher Scientific, Waltham, MA, USA). The normalization of targets’ gene expression was performed against the housekeeping gene RPL13A. Real-Time PCRs were performed by using iQ SYBR Green Supermix and CFX96 Real-Time PCR detection system (Bio-Rad Laboratories, Redmond, WA, USA). The relative expression levels were calculated using the 2^−∆∆CT method. An unpaired T-test was used to determine statistical significance. Values are presented as mean and error bars indicate standard errors (SE). The results are representative of two independent experiments in triplicate.

[3] = tested on: NRF2 gene expression in SH-SY5Y cells; assay: Real-Time PCR of NRF2 mRNA levels; settings: 12.5 µM, 12 h; for effect on NRF2 expression (in words): vs DMSO
Experimental: as §4

[4] = target: S1R; settings: cited from earlier work
[5] = target: T1, S1R (Cavia porcellus, UniProt Q60492); assay: S1R radioligand binding assay, [3H](+)-pentazocine, guinea pig brain cortex homogenates; settings: for S2R/S1R selectivity ratio: ratio of Ki S2R to Ki S1R
T1 construct: Fresh guinea pig brain cortex was homogenized in ice-cold Tris (50 mM, pH 7.4); tissue ENVIGO RMS S.R.L., Udine, Italy (animals); host or cells: male Dunkin-Hartley guinea pig brain cortex membranes
Experimental: The bound radioactivity has been determined using a Beckman LS 6500 liquid scintillation counter (Beckman Coulter, Brea, CA, USA).
The test compound solutions were prepared by dissolving approximately 10 µmol of the test compound in DMSO to obtain a 10 mM stock solution.
Fresh guinea pig brain cortex was homogenized in ice-cold Tris (50 mM, pH 7.4) containing cold 0.32 M sucrose with a Potter-Elvehjem glass homogenizer. […] The final pellet was resuspended in ice-cold Tris buffer, and frozen at −80 °C. The protein concentration was determined by the method of Bradford [42].
Bound and free radioligand were separated by fast filtration under reduced pressure using a Millipore filter apparatus through Whatman GF 6 glass fiber filters, which were presoaked in a 0.5% poly(ethyleneimine) water solution for 120 min. Each filter paper was rinsed three times with 3 mL of ice-cold Tris buffer (50 mM, pH 7.4), dried at room temperature, and incubated overnight with 3 mL of Ultima Gold MV Scintillation cocktail into pony vials.
The Ki-values were calculated with the program GraphPad Prism® 6.0 (GraphPad Software, San Diego, CA, USA). The Ki-values are given as the mean value ± SD from at least two independent experiments performed in duplicate.

[6] = target: T2, S2R (Rattus norvegicus, UniProt Q5U3Y7); assay: S2R radioligand binding assay, [3H]DTG, rat liver membranes
T2 construct: A few rat livers were homogenized in cold 0.32 M sucrose with a Potter-Elvehjem glass homogenizer; tissue ENVIGO RMS S.R.L., Udine, Italy (animals); host or cells: Sprague Dawley rat liver membranes
T2 sequence (Q5U3Y7 1-176): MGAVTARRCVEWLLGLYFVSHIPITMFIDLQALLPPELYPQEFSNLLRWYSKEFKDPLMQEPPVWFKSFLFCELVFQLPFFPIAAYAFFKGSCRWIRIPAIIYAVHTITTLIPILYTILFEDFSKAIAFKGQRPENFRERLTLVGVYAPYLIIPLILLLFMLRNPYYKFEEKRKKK

[7] = ABTS radical scavenging; settings: ABTS 7 mM ethanolic, 45 min, 735 nm
Experimental: The compounds’ antioxidant capacity was evaluated by bleaching the green colored ethanolic solution of ABTS [41]. Test compounds (300 μL) were diluted as follows: 0.01, 0.025, 0.05, 0.1, and 0.2 mg/mL and added to 2.7 mL of ethanolic solution of ABTS (7 mM). These mixtures were incubated for 45 min at room temperature, and the absorbances were recorded at λ = 735 nm against the ABTS solution. The results were obtained as the percent of inhibition (% IC) of ABTS radical, calculated by the following formula. % IC = [(Abs ABTS − Abs Sample)/Abs ABTS] × 100
Data were expressed as mean value ± SD, and the assay was performed in triplicate.
The % IC was used to determine the IC50 values.

[8] = Hydrogen peroxide scavenging; settings: H2O2 2 mM, 230 nm
[9] = tested on: SH-SY5Y cells; assay: Cytotoxicity, resazurin cell viability test; assay type: cell-based, human
Experimental: as §1, §2, §3

[10] = tested on: S1R; assay: S1R affinity taken from the literature; assay type: binding; settings: ifenprodil, from literature Ki values
Source text: Table 2 Binding affinities towards S1R and S2R, for compounds 5a–o.

[11] = target: S2R; design: method as in PMID 31319263; settings: ifenprodil, Table 2 footnote b; cited from earlier work

T1 sequence (Q60492 whole entry): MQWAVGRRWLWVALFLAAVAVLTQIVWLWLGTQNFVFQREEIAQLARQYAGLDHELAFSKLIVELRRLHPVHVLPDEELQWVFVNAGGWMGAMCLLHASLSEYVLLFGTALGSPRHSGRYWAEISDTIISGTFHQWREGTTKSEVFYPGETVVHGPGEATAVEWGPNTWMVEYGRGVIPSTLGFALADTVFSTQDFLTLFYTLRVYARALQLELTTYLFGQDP

Structure (SMILES) | Ki [5] [nM] | S2R/S1R selectivity ratio [5] | Ki ([6]; read-out: Ki S2R) [nM] | IC50 H2O2 [8] [µg/mL] | Ki ([5]; read-out: Ki S1R) [nM] | further results
O=C(CCCN1CCC(O)(c2ccc(Cl)cc2)CC1)c1ccc(F)cc1 [Haloperidol, reference compound] |  |  |  |  |  | IC50 ([1]; SH-SY5Y neuroblastoma cells): 23000 nM; effect on SOD1 expression (in words) [2]: did not cause significant changes; effect on NRF2 expression (in words) [3]: did not cause significant changes
COc1cc2c(cc1OC)C(=O)C(CC1CCN(Cc3ccccc3)CC1)C2 (stereo not drawn) [Donepezil] |  |  |  |  |  | Ki ([4]; donepezil): 14.6 nM
CC(C(=O)c1ccccc1)N1CCCN(Cc2ccccc2)CC1 (stereo not drawn) [5a, 2-(4-Benzyl-1,4-diazepan-1-yl)-1-phenylpropan-1-one] | 69 ± 14 | 1.6 | 108 ± 21 |  |  | 
CC(C(=O)c1ccccc1)N1CCN(Cc2ccccc2)CC1 (stereo not drawn) [5d, 2-(4-Benzylpiperazin-1-yl)-1-phenylpropan-1-one] | 8 ± 1 | 38 | 302 ± 65 | 14.56 ± 0.18 (≈ 47.2 µM) |  | IC50 ([1]; SH-SY5Y cells): 118000 nM; IC50 ABTS [7]: 2.854 ± 0.11 µg/mL (≈ 9.25 µM); SOD1 mRNA levels, fold increase compared to DMSO [2]: 1.3 fold; NRF2 mRNA levels, fold increase compared to DMSO [3]: 1.7 fold
CC(C(=O)c1ccc(O)cc1)N1CCN(c2ccccc2)CC1 (stereo not drawn) [5l, 2-(4-Phenylpiperazin-1-yl)-1-(4-hydroxyphenyl)propan-1-one] |  | 0.18 | 147 ± 17 |  | 785 ± 226 | melting point: 163 to 165 °C
CCCN(CCC)CCc1ccc(OC)c(OCCc2ccccc2)c1 [NE100, reference compound] |  |  |  |  |  | IC50 [9]: 49000 nM
CC(C(O)c1ccc(O)cc1)N1CCC(Cc2ccccc2)CC1 (stereo not drawn) [Ifenprodil] |  |  |  |  |  | S2R/S1R selectivity ratio [10]: 0.75; Ki ([4]; ifenprodil, Table 2 footnote b): 125 ± 24 nM; Ki [11]: 98 ± 34 nM
COc1ccc(C(=O)C(C)N(C)CCCCc2ccccc2)cc1 (stereo not drawn) [5g, 1-(4-Methoxyphenyl)-2-(methyl(4-phenylbutyl)amino)propan-1-one] |  | 3.3 | 386 ± 110 |  | 117 ± 18 | 
Cc1c(C)c2c(c(C)c1O)CCC(C)(C(=O)O)O2 (stereo not drawn) [Trolox, 6-hydroxy-2,5,7,8-tetramethylchroman-2-carboxylic acid, reference compound] |  |  |  | 15.69 ± 0.69 (≈ 62.7 µM) |  | IC50 ABTS [7]: 2.365 ± 0.19 µg/mL (≈ 9.45 µM)
CC(C(=O)c1ccccc1)N1CCN(c2ccccc2)CC1 (stereo not drawn) [5b, 2-(4-Phenylpiperazin-1-yl)-1-phenylpropan-1-one] |  | 0.05 | 158 ± 30 |  | 2930 ± 1150 | melting point: 105 to 106 °C
CC(C(=O)c1ccc(O)cc1)N(C)CCCCc1ccccc1 (stereo not drawn) [5j, 1-(4-Hydroxyphenyl)-2-(methyl(4-phenylbutyl)amino)propan-1-one] |  | 0.38 |  |  | 121 ± 22 | Ki [6]: 45 ± 4 nM
CC(C(=O)c1ccc(O)cc1)N1CCCN(Cc2ccccc2)CC1 (stereo not drawn) [5i, 2-(4-Benzyl-1,4-diazepan-1-yl)-1-(4-hydroxyphenyl)propan-1-one] | 19 ± 3 | 1.1 |  | 13.11 ± 0.24 (≈ 38.7 µM) |  | Ki [6]: 22 ± 4 nM; IC50 ([1]; SH-SY5Y cells): 294000 nM; IC50 ABTS [7]: 2.603 ± 0.09 µg/mL (≈ 7.69 µM); effect on SOD1 expression (in words) [2]: did not significantly alter; NRF2 mRNA levels, fold increase compared to DMSO [3]: 2.8 fold
CC(C(=O)c1ccccc1)N(C)CCCCc1ccccc1 (stereo not drawn) [5c, 2-(Methyl(4-phenylbutyl)amino)-1-phenylpropan-1-one] |  | 0.15 | 733 ± 106 |  | 4720 ± 1690 | 
COc1ccc(C(O)C(C)N(C)CCCCc2ccccc2)cc1 (stereo not drawn) [5n, 1-(4-Methoxyphenyl)-2-(methyl(4-phenylbutyl)amino)propan-1-ol] | 38 ± 9 | 13 | 479 ± 93 |  |  | 
COc1ccc(C(=O)C(C)N2CCN(Cc3ccccc3)CC2)cc1 (stereo not drawn) [5h, 2-(4-Benzylpiperazin-1-yl)-1-(4-methoxyphenyl)propan-1-one] | 1.4 ± 0.2 |  |  | 466.24 ± 1.36 (≈ 1380 µM) |  | Ki [6]: 84 ± 31 nM; IC50 ([1]; SH-SY5Y cells): 117000 nM; effect on SOD1 expression (in words) [2]: dramatically reduced; effect on NRF2 expression (in words) [3]: significant decrease
Fc1ccc(-n2cc(CCCCN3CCC4(CC3)OCc3ccccc34)c3ccccc32)cc1 [Siramesine, reference compound] |  |  |  |  |  | IC50 ([1]; SH-SY5Y neuroblastoma cells): 2000 nM
CC(C(=O)c1ccc(O)cc1)N1CCN(Cc2ccccc2)CC1 (stereo not drawn) [5k, 2-(4-Benzylpiperazin-1-yl)-1-(4-hydroxyphenyl)propan-1-one] | 19 ± 2 | 6.8 | 129 ± 23 | 436.43 ± 1.17 (≈ 1350 µM) |  | IC50 ([1]; SH-SY5Y cells): 132000 nM; melting point: 58 to 59 °C; effect on SOD1 expression (in words) [2]: dramatically reduced; effect on NRF2 expression (in words) [3]: significant decrease
COc1ccc(C(=O)C(C)N2CCCN(Cc3ccccc3)CC2)cc1 (stereo not drawn) [5e, 2-(4-Benzyl-1,4-diazepan-1-yl)-1-(4-methoxyphenyl)propan-1-one] | 12 ± 2 | 8.1 |  | 12.65 ± 0.21 (≈ 35.9 µM) |  | Ki [6]: 97 ± 17 nM; IC50 ([1]; SH-SY5Y cells): 74000 nM; IC50 ABTS [7]: 2.495 ± 0.09 µg/mL (≈ 7.08 µM); effect on SOD1 expression (in words) [2]: did not significantly alter; effect on NRF2 expression (in words) [3]: did not change its expression significantly
COc1ccc(C(=O)C(C)N2CCN(c3ccccc3)CC2)cc1 (stereo not drawn) [5f, 2-(4-Phenylpiperazin-1-yl)-1-(4-methoxyphenyl)propan-1-one] |  | 0.53 | 989 ± 337 |  | 1860 ± 987 | melting point: 117 to 119 °C
COc1ccc(C(O)C(C)N2CCCN(Cc3ccccc3)CC2)cc1 (stereo not drawn) [5o, 2-(4-Benzyl-1,4-diazepan-1-yl)-1-(4-methoxyphenyl)propan-1-ol] |  | 32 | 128 ± 26 | 12.13 ± 0.25 (≈ 34.2 µM) | 4.2 ± 0.6 | IC50 ([1]; SH-SY5Y neuroblastoma cells): 118000 nM; IC50 ABTS [7]: 2.481 ± 0.05 µg/mL (≈ 7 µM); effect on SOD1 expression (in words) [2]: dramatically reduced; effect on NRF2 expression (in words) [3]: significant decrease
CC(C(O)c1ccccc1)N(C)CCCCc1ccccc1 (stereo not drawn) [5m, 2-(Methyl(4-phenylbutyl)amino)-1-phenylpropan-1-ol] | 37 ± 10 | 0.81 |  |  |  | Ki [6]: 30 ± 8 nM
